In patent US20250376483A1, “PRODRUGS OF PAN-KRAS INHIBITORS” (Mirati Therapeutics, Inc., priority 2022, published 2025):

How the values were obtained:
[1] = Whole Blood Stability Assay (mouse whole blood); assay type: in vitro ADME; details: CD-1 mouse blood, EDTA-K2, final conc. 2 μM, 37° C., 0-120 min; for half-life at 2 μM: male, fresh whole blood, read-out: Mouse Whole Blood Stability t1/2
Procedure: Whole Blood Stability Assay
This Example illustrates that exemplary compounds of the present invention is cleavage in mouse whole blood.
(§1) Test Compounds and Stock Solutions: Stock Conc. 10 mM; Final Conc. 2 μM
(§2) Test Compound and Control Working Solution Preparation:
• Intermediate solution: 5 μL of compound stock solution (10 mM in dimethyl sulfoxide (DMSO)) were diluted with […] of DMSO (intermediate solution concentration: 1 mM, 100% DMSO) • Propantheline bromide (control) intermediate solution: 5 μL of propantheline stock solution (10 mM in ultra-pure water) were diluted with 45 μL of ultra-pure water (intermediate solution concentration: 1 mM) • Working solution 1: 20 μL of test compound intermediate solution (1 mM) were diluted with 180 μL of 45% ACN/H2O (working solution concentration: […], 40.5% ACN, 10% DMSO) • Working solution 2: 20 μL of control intermediate solution (1 mM) were diluted with 180 μL of 45% ACN/H2O (working solution concentration: 100 μM, 40.5% ACN, 10% DMSO) • Species/Matrix: CD-1 Mouse Blood • No. of Individuals: n>3 Male • Anticoagulant Used: EDTA-K2
• The fresh blood was collected on the day of experiment and pre-warmed in a water bath at 37° C. • Using an Apricot automation workstation, 98 μL/well of blank blood were added to all 96-well reaction plates (Blank, T0, T10, T30, T60 and T120). • An Apricot automation workstation was used to add 2 μL/well of working solution (100 μM) to all reaction plates except Blank (T0, T10, T30, T60 and T120). • All reaction plates containing mixtures of compound and blood were incubated at 37° C. in water bath. • The reaction plates were incubated at 37° C., and timer was started. • At the end of incubation, mixed 100 μL water with 100 μL spiked blood samples, then added 800 μL of stop solution (200 ng/mL tolbutamide and 200 ng/mL labetalol in ACN) to precipitate protein. Mixed thoroughly. • Each plate was sealed and shaken for 20 minutes. • After shaking, each plate was centrifuged at 4000 rpm and 4° C. for 20 minutes. • After centrifugation, an Apricot automation workstation was used to transfer 150 μL of supernatant from each reaction plate to its corresponding bioanalysis plate. • Each bioanalysis plate was submitted to LC-MS/MS analysis.
• The % remaining of test compound after incubation in blood was calculated using following equation:
(§3) [formula] • where PAR is the peak area ratio of analyte versus internal standard (IS) • The appointed incubation time points are TO (0 min), Tn (n=0, 10, 30, 60 and 120 min)

[2] = Plasma Stability Assay (human plasma); assay type: in vitro ADME; details: both sexes; pooled human plasma, heparin, final conc. 2 μM, 37° C., 0-120 min; read-out: Human Plasma Stability t1/2
Procedure: This Example illustrates that exemplary compounds of the present invention is cleavage in human plasma.
as §1, §2
• Test compound intermediate solution: 10 μL of compound stock solution (10 mM in dimethyl sulfoxide (DMSO)) were diluted with 90 μL of DMSO (intermediate solution concentration: 1 mM, 100% DMSO) • Control intermediate solution: 10 μL of control stock solution (10 mM in dimethyl sulfoxide (DMSO)) were diluted with 90 μL of DMSO (intermediate solution concentration: 1 mM, 100% DMSO) • Species/Matrix: Human Plasma • No. of Individuals: 3 Male & 3 Female • Anticoagulant Used: Heparin
• The pooled frozen plasma was thawed in a water bath at 37° C. prior to experiment. Plasma was centrifuged at 4000 rpm for 5 min and the clots were removed if any. • Using an Apricot automation workstation, 98 μL/well of blank plasma were added to all 96-well reaction plates. (Blank, T0, T10, T30, T60 and T120) • An Apricot automation workstation was used to add 2 μL/well of working solution (100 μM) to all reaction plates except Blank. (T0, T10, T30, T60 and T120) • All reaction plates containing mixtures of compound and plasma were incubated at 37° C. in water bath. • The reaction plates were incubated at 37° C., and timer was started. • At the end of incubation, added 500 μL of stop solution (200 ng/mL tolbutamide and 200 ng/mL labetalol in ACN) to precipitate protein. Mixed thoroughly. • Each plate was sealed and shaken for 20 minutes. • After shaking, each plate was centrifuged at 4000 rpm and 4° C. for 20 minutes • After centrifugation, an Apricot automation workstation was used to transfer 50 μL supernatant into 100 μL HPLC water. • Each bioanalysis plate was sealed and shaken for 10 minutes prior to LC-MS/MS analysis Data Analysis • The % remaining of test compound after incubation in blood was calculated using following equation:
as §3

| SMILES | half-life at 2 μM [1] | half-life at 2 μM [2] | Mouse Whole Blood Stability t1/2 [1] |
| --- | --- | --- | --- |
| CCc1c(F)ccc2cc(OC(C)=O)cc(-c3ncc4c(N5C[C@@H]6C[C@H](C5)[C@H](O)C6)nc(OC[C@@]56CCCN5C[C@H](F)C6)nc4c3F)c12 [Example 1, 5-ethyl-6-fluoro-4-(8-fluoro-2-(((2R,7aS)-2-fluorotetrahydro-1H-pyrrolizin-7a(5H)-yl)methoxy)-4-((1R,5R,6R)-6-hydroxy-3-azabicyclo[3.2.1]octan-3-yl)pyrido[4,3-d]pyrimidin-7-yl)naphthalen-2-yl acetate] | 3 min | 23 min |  |
| CCC(=O)Oc1cc(-c2ncc3c(N4C[C@@H]5C[C@H](C4)[C@H](O)C5)nc(OC[C@@]45CCCN4C[C@H](F)C5)nc3c2F)c2c(CC)c(F)ccc2c1 [Example 2, 5-ethyl-6-fluoro-4-(8-fluoro-2-(((2R,7aS)-2-fluorotetrahydro-1H-pyrrolizin-7a(5H)-yl)methoxy)-4-((1R,5R,6R)-6-hydroxy-3-azabicyclo[3.2.1]octan-3-yl)pyrido[4,3-d]pyrimidin-7-yl)naphthalen-2-yl propionate] |  | 13 min | 1 min |
| CCc1c(F)ccc2cc(OC(=O)C(C)C)cc(-c3ncc4c(N5C[C@@H]6C[C@H](C5)[C@H](O)C6)nc(OC[C@@]56CCCN5C[C@H](F)C6)nc4c3F)c12 [Example 3, 5-ethyl-6-fluoro-4-(8-fluoro-2-(((2R,7aS)-2-fluorotetrahydro-1H-pyrrolizin-7a(5H)-yl)methoxy)-4-((1R,5R,6R)-6-hydroxy-3-azabicyclo[3.2.1]octan-3-yl)pyrido[4,3-d]pyrimidin-7-yl)naphthalen-2-yl isobutyrate] | 3 min | 27 min |  |
| CCc1c(F)ccc2cc(OC(=O)C3CC3)cc(-c3ncc4c(N5C[C@@H]6C[C@H](C5)[C@H](O)C6)nc(OC[C@@]56CCCN5C[C@H](F)C6)nc4c3F)c12 [Example 4, 5-ethyl-6-fluoro-4-(8-fluoro-2-(((2R,7aS)-2-fluorotetrahydro-1H-pyrrolizin-7a(5H)-yl)methoxy)-4-((1R,5R,6R)-6-hydroxy-3-azabicyclo[3.2.1]octan-3-yl)pyrido[4,3-d]pyrimidin-7-yl)naphthalen-2-yl cyclopropanecarboxylate] | 5 min | 17 min |  |
| CCc1c(F)ccc2cc(OC(=O)C(C)(C)C)cc(-c3ncc4c(N5C[C@@H]6C[C@H](C5)[C@H](O)C6)nc(OC[C@@]56CCCN5C[C@H](F)C6)nc4c3F)c12 [Example 5, 5-ethyl-6-fluoro-4-(8-fluoro-2-(((2R,7aS)-2-fluorotetrahydro-1H-pyrrolizin-7a(5H)-yl)methoxy)-4-((1R,5R,6R)-6-hydroxy-3-azabicyclo[3.2.1]octan-3-yl)pyrido[4,3-d]pyrimidin-7-yl)naphthalen-2-yl pivalate] | 2 min | 67 min |  |
| CCc1c(F)ccc2cc(OC(=O)N(C)C)cc(-c3ncc4c(N5C[C@@H]6C[C@H](C5)[C@H](O)C6)nc(OC[C@@]56CCCN5C[C@H](F)C6)nc4c3F)c12 [Example 6, 5-ethyl-6-fluoro-4-(8-fluoro-2-(((2R,7aS)-2-fluorotetrahydro-1H-pyrrolizin-7a(5H)-yl)methoxy)-4-((1R,5R,6R)-6-hydroxy-3-azabicyclo[3.2.1]octan-3-yl)pyrido[4,3-d]pyrimidin-7-yl)naphthalen-2-yl dimethylcarbamate] | > 289 min | > 289 min |  |
| CCc1c(F)ccc2cc(OC(=O)N3CCCCC3)cc(-c3ncc4c(N5C[C@@H]6C[C@H](C5)[C@H](O)C6)nc(OC[C@@]56CCCN5C[C@H](F)C6)nc4c3F)c12 [Example 7, 5-ethyl-6-fluoro-4-(8-fluoro-2-(((2R,7aS)-2-fluorotetrahydro-1H-pyrrolizin-7a(5H)-yl)methoxy)-4-((1R,5R,6R)-6-hydroxy-3-azabicyclo[3.2.1]octan-3-yl)pyrido[4,3-d]pyrimidin-7-yl)naphthalen-2-yl piperidine-1-carboxylate] | > 289 min | > 289 min |  |
| CCc1c(F)ccc2cc(OC(=O)OC)cc(-c3ncc4c(N5C[C@@H]6C[C@H](C5)[C@H](O)C6)nc(OC[C@@]56CCCN5C[C@H](F)C6)nc4c3F)c12 [Example 9, 5-ethyl-6-fluoro-4-(8-fluoro-2-(((2R,7aS)-2-fluorotetrahydro-1H-pyrrolizin-7a(5H)-yl)methoxy)-4-((1R,5R,6R)-6-hydroxy-3-azabicyclo[3.2.1]octan-3-yl)pyrido[4,3-d]pyrimidin-7-yl)naphthalen-2-yl methyl carbonate] |  | 9 min | 1 min |
| CCc1c(F)ccc2cc(OC(=O)N(CCOC)CCOC)cc(N3CCc4c(nc(OC[C@@]56CCCN5C[C@H](F)C6)nc4N4CCC[C@]5(C4)NC(=O)NC5=O)C3)c12 [Example 65, 4-(4-((R)-2,4-dioxo-1,3,7-triazaspiro[4.5]decan-7-yl)-2-(((2R,7aS)-2-fluorotetrahydro-1H-pyrrolizin-7a(5H)-yl)methoxy)-5,8-dihydropyrido[3,4-d]pyrimidin-7(6H)-yl)-5-ethyl-6-fluoronaphthalen-2-yl bis(2-methoxyethyl)carbamate] |  | > 289 min |  |
| CCc1c(F)ccc2cc(OC(C)=O)cc(N3CCc4c(nc(OCC56CCCN5C/C(=C\F)C6)nc4N4CCC[C@]5(C4)NC(=O)NC5=O)C3)c12 (stereo partly drawn) [Example 72, 4-(4-(CAN-2,4-dioxo-1,3,7-triazaspiro[4.5]decan-7-yl)-2-(((S,Z)-2-(fluoromethylene)tetrahydro-1H-pyrrolizin-7a(5H)-yl)methoxy)-5,8-dihydropyrido[3,4-d]pyrimidin-7(6H)-yl)-5-ethyl-6-fluoronaphthalen-2-yl acetate] | 2 min |  |  |
| CCc1c(F)ccc2cc(OC(=O)N3CCCCC3)cc(N3CCc4c(nc(OC[C@@]56CCCN5C/C(=C\F)C6)nc4N4CCC[C@]5(C4)NC(=O)NC5=O)C3)c12 [Example 73, 4-(4-(CAN-2,4-dioxo-1,3,7-triazaspiro[4.5]decan-7-yl)-2-(((S,Z)-2-(fluoromethylene)tetrahydro-1H-pyrrolizin-7a(5H)-yl)methoxy)-5,8-dihydropyrido[3,4-d]pyrimidin-7(6H)-yl)-5-ethyl-6-fluoronaphthalen-2-yl piperidine-1-carboxylate] | 147 min |  |  |
| CCc1c(F)ccc2cc(OC(=O)C(C)C)cc(N3CCc4c(nc(OCC56CCCN5C/C(=C\F)C6)nc4N4CCC[C@]5(C4)NC(=O)NC5=O)C3)c12 (stereo partly drawn) [Example 76, 4-(4-(CAN-2,4-dioxo-1,3,7-triazaspiro[4.5]decan-7-yl)-2-(((S,Z)-2-(fluoromethylene)tetrahydro-1H-pyrrolizin-7a(5H)-yl)methoxy)-5,8-dihydropyrido[3,4-d]pyrimidin-7(6H)-yl)-5-ethyl-6-fluoronaphthalen-2-yl isobutyrate] | 4 min |  |  |
